{"source": "patent US9963514B2", "about": "“BAG3 receptor binding molecules for use as a medicament” (BIOUNIVERSA S.R.L., priority 2013, dated 2018)", "key": {"J774 A1 cells [1]": {"tested_on": "J774 A1 cells", "test": "Binding of FITC-BAG3 to J774 macrophages by flow cytometry, with competition by BAG3-specific peptides or anti-BAG3 F(ab')2", "design": "species or system murine", "description": "J774 A1 cells (1×10^6 cells/ml) were incubated with different concentrations of BAG3 FITC protein ([…]). FITC-BSA (70 nM) was used as a negative control (grey). Fluorescence was analyzed by flow cytometry. (FIG. 10).\nIn particular, J774 cells were incubated with 14 nM FITC-BAG3 protein and with 625 nM BAG3-specific peptides (peptide 1, peptide 2, peptide 3, peptide 4, or a scrambled peptide) or with 420 nM of anti-BAG3 F(ab′) antibodies (mouse monoclonal antibodies AC1, AC2 and the polyclonal antibody produced in rabbit TOS2). Fragments F(ab′) 2 of rabbit or mouse IgG were used as a negative control."}, "[2]": {"tested_on": "pancreatic adenocarcinoma cells (PANC-1)", "test": "Confocal fluorescence microscopy of rBAG3-FITC binding to PANC-1 cells", "details": "0.1% NaN3, 1 h", "description": "(§1) (FIG. 9). Confocal fluorescence microscopy analysis was performed to measure the binding of rBAG3-FITC to HCM, J774 A1, and PANC-1 cells. The BAG3 recombinant protein and the BSA (bovine serum albumin) (SIGMA) were conjugated to FITC using the FluoroTag Conjugation FITC kit (SIGMA) following the manufacturer's instructions. Equal amounts of rBAG3-FITC and BSA-FITC were added to the three cell lines in the presence of 0.1% NaN3 for 1 h. β-integrin protein was used as a positive control. Fluorescence was analyzed using a Zeiss LSM confocal microscope."}, "heart muscle cells (HCM)": {"tested_on": "heart muscle cells (HCM)", "test": "Confocal fluorescence microscopy of rBAG3-FITC binding to HCM cells", "details": "0.1% NaN3, 1 h", "description": "as §1"}, "J774 A1 cells [3]": {"tested_on": "J774 A1 cells", "test": "Confocal fluorescence microscopy of rBAG3-FITC binding to J774 cells", "design": "species or system murine", "details": "1 h", "description": "The binding of the BAG3 protein to the cell surface of the J774 cells was then confirmed through conjugation of the recombinant protein with a fluorophore (FIG. 8). The BAG3 recombinant protein was then conjugated to FITC using the FluoroTag Conjugation FITC kit (SIGMA). Equal amounts of BSA-FITC (negative control) and rBAG3-FITC were added to the culture medium for 1 h. The cells were then fixed with a 3.7% formaldehyde solution and analyzed with a Zeiss LSM confocal microscope.\nas §1, with “Confocal” for “(FIG. 9). Confocal”"}, "[4]": {"tested_on": "J774 murine monocyte cell line", "test": "Macrophage activation: nitrite production with Griess reagent (Example 8)", "type": "cell-based", "details": "24 h", "description": "J774 cells were plated at a 60% confluence and incubated for 24 h with the BAG3 recombinant protein at concentrations of 10, 30, or 100 ng/ml. The nitrites production was verified in the culture medium using Griess reagent (1% sulphanilamide, 0.1% naphthyl ethylenediamine, 5% phosphoric acid) and measured using a Beckman DU-62 spectrophotometer at […].\nThe BAG3 recombinant protein was then used in macrophage activation assays in order to determine a possible role of the protein released in the serum in relation to the blood cells. To this end, the J774 murine monocyte cell line was treated with the BAG3 recombinant protein at different concentrations, using a pro-inflammatory agent, such as lipopolysaccharide (LPS), as a positive control. The activation of monocytes was measured by assay of nitrites. (FIG. 7)."}, "J774 A1 macrophages [5]": {"tested_on": "J774 A1 macrophages", "test": "IL-6 release by J774 A1 macrophages incubated with rBAG3 (ELISA, Example 13)", "type": "cell-based, murine", "details": "J774A.1 cells, 5 hours", "description": "J774A.1 cells at 80% confluence were incubated with a control medium, BSA, LPS, or BAG3 for 5 hours. IL-6 was measured in the cell culture medium using an ELISA test. IL-6 concentration was assessed by comparing the sample's ODs with that of a standard IL-6 recombinant curve (FIG. 13)."}, "J774 A1 macrophages [6]": {"tested_on": "J774 A1 macrophages", "test": "Nitrite release by J774 A1 macrophages incubated with rBAG3 (Example 12)", "type": "cell-based, murine", "details": "J774 A1 cells, 24 hours", "description": "J774 A1 cells at 80% confluence were incubated with a control medium, BSA, LPS, or rBAG3 for 24 hours. […] supernatant from each sample was incubated with […] Griess reagent; the optical density at 550 nm (OD550) was measured with a Beckman DU62 spectrophotometer. The nitrite concentration was assessed by comparing the sample's OD at 550 nm with that of a standard sodium nitrite curve (FIG. 12)."}, "[7]": {"tested_on": "inducible nitric oxide synthase (iNOS)", "test": "Effect of rBAG3 on iNOS expression in J774 cells (Western blot)", "type": "cell-based, murine", "details": "20 hours", "description": "(§2) In order to explore the functional consequences of the binding of BAG3 to macrophages, we tested the effect of rBAG3 expression on inducible nitric oxide synthase (iNOS) and cyclo-oxygenase-2 (COX-2) in the cells. J774 cells at 80% confluence were incubated with a control medium, BSA, LPS or rBAG3 for 20 hours. Polymyxin was added to verify the presence of non-specific effects of endotoxins still present after the purification of the BAG3 recombinant protein. COX-2 and iNOS were analyzed in cell lysates by Western blotting."}, "[8]": {"tested_on": "cyclo-oxygenase-2 (COX-2)", "test": "Effect of rBAG3 on COX-2 expression in J774 cells (Western blot)", "type": "cell-based, murine", "details": "20 hours", "description": "as §2"}}}
{"substance": "FITC-BSA: bovine serum albumin conjugated to FITC, negative control [reference compound]", "values": [{"measurement": "FITC-BSA positive cell % (±D.S.)", "setting": "J774 A1 cells [1]; J774 cells, FITC-BSA negative control, flow cytometry", "value": "4.04 (±0.06) %"}]}
{"substance": "FITC-rBAG3: BAG3 recombinant protein conjugated to FITC using the FluoroTag Conjugation FITC kit", "values": [{"measurement": "binding to pancreatic adenocarcinoma cells (PANC-1)", "setting": "[2]", "value": "not"}, {"measurement": "binding to heart muscle cells (HCM)", "setting": "heart muscle cells (HCM)", "value": "not"}, {"measurement": "binding to the cell surface of J774 macrophages", "setting": "J774 A1 cells [3]; listed as BAG3 recombinant protein bound to fluorescein isothiocyanate (FITC)", "value": "binds the surface of macrophages"}, {"measurement": "binding to the cell surface of J774 macrophages", "setting": "J774 A1 cells [3]; listed as rBAG3-FITC", "value": "confirmed"}, {"measurement": "FITC-rBAG3 positive cell % (±D.S.)", "setting": "J774 A1 cells [1]; J774 cells, FITC-rBAG3 alone, flow cytometry", "value": "15.7 (±0.45) %"}, {"measurement": "(FITC-rBAG3)-(FITC-BSA) positive cell % (±D.S.)", "setting": "J774 A1 cells [1]; J774 cells, FITC-rBAG3 minus FITC-BSA", "value": "11.06 (±0.45) %"}, {"measurement": "binding of FITC-BAG3 to macrophages of the J774 cell line", "setting": "J774 A1 cells [1]; flow cytometry, 7, 14 and 70 nm FITC-BAG3", "value": "binds the macrophages of the J774 cell line"}]}
{"substance": "rBAG3: BAG3 recombinant protein with a His tag", "values": [{"measurement": "increase of nitrite production compared to the control", "setting": "[4]; J774 cells, 100 ng/ml, p<0.001", "value": 200, "unit": "%"}, {"measurement": "nitrite production, dependence on dose", "setting": "[4]; J774 cells, 10, 30 or 100 ng/ml", "value": "dose-dependent"}, {"measurement": "release of interleukin-6 (IL-6)", "setting": "J774 A1 macrophages [5]", "value": "induces the release of interleukin-6 (IL-6)"}, {"measurement": "release of nitrite", "setting": "J774 A1 macrophages [6]", "value": "induces the release of nitrite"}, {"measurement": "iNOS enzyme levels", "setting": "[7]", "value": "increased"}, {"measurement": "COX-2 enzyme levels", "setting": "[8]", "value": "increased"}]}
